Assay results: patent publication US7985731B2, “Sugar chain added GLP-1 peptide” (Otsuka Chemical Holdings Co., Ltd., priority 2007, dated 2011)
Ends that are not written are not given here. asialo oligosaccharide = not defined here

Tests used:
[1] = Test Example 1: stability in plasma; assay type: in vitro ADME; details: PBS 70% / plasma 30%, 37° C., sampled 10 to 1440 minutes
Protocol: 0.1 mg of the peptide prepared in Example 7 or Comparative Example 1 was placed in an Eppendorf tube, and PBS (0.08 ml, 70% of the whole amount) and plasma (0.034 ml, 30% of the whole amount) were sequentially placed therein to bring about the solution amount to 0.114 ml in total. The mixture was allowed to react at 37° C.
The time when plasma was added to the reaction vessel was defined as 0 min. 0.01 ml aliquots were taken from the reaction solution on 10, 30, 60, 180, 360, 720 and 1440 minutes for sampling.
Each sampled reaction solution was mixed with 0.02 ml of 10% trifluoroacetic acid solution prepared in advance in an Eppendorf tube and then centrifuged. A 0.025 ml aliquot of the supernatant of the solution mixture was injected into HPLC to analyze the composition of the reaction solution (reaction monitoring conditions: Shiseido CAPCELL PAK C18, UG120, 250×4.6 mm, developing solvent A: 0.1% aqueous TFA solution, B: 0.1% TFA acetonitrile: water=90:10, gradient A:B=95:5→5:95, 15 min, flow rate: 0.7 ml/min). The results are shown in FIGS. 5 (Example 7) and 6 (Comparative Example 1).

[2] = tested on: type-2 diabetes model mice (BKS.Cg-+Lepr db/+Lepr db/Jcl); test: Test Example 2: effect of lowering blood-sugar levels in db/db mice-1; assay type: in vivo; details: 9 nmol/kg intraperitoneal, 8-week-old male db/db mice, 0-180 minutes
Protocol: The peptide prepared in each of Examples 1 to 5 or Comparative Example 1 was intraperitoneally administered as the same sample at a dose of […] of body weight (sample concentration: 9 nmol/kg of body weight) to each of three 8-week-old male type-2 diabetes model mice (BKS.Cg−+Lepr^db/Lepr^db/Jcl*). Specifically, the peptide in a PBS solution (9 nmol/10 ml) was intraperitoneally administered at a dose of 10 ml/kg to the BKS.Cg−+Lepr^db/+Lepr^db/Jcl mice (8 week old, male). 0, 30, 60, 90, 120 and 180 minutes after the administration, 0.03 ml of peripheral blood from the retro-orbital venous plexus was collected. The obtained blood was diluted with PBS to 0.3 ml in total, and the solution was centrifuged to separate plasma and hemocyte components. Then, only the plasma component was transferred to an Eppendorf tube separately prepared and refrigerated. A glucose concentration in plasma was measured in accordance with Glucose CII-Test Wako using an absorptiometer. The results were obtained by statistical processing.

[3] = tested on: C57BL/6JJcl mice; test: Test Example 7: Oral Glucose Tolerance Test (OGTT); assay type: in vivo; details: 9 nmol/kg intraperitoneal 30 minutes before glucose 1 mg/g oral
How it was run: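 Overnight-fasted mice received oral glucose 1 mg/g 30 minutes after treatment. Orbital blood taken before and at 30, 60, 120 minutes post-glucose. Blood glucose measured by glucometer.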

[4] = tested on: db/db (BKS.Cg-+Lepr db/+Lepr db/Jcl) mice; test: Test Example 8: effect of lowering blood-sugar levels in diabetes model mice; assay type: in vivo; details: 9 nmol/kg intraperitoneal, 10-week-old male mice
How it was run: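 Male db/db mice, 10 weeks old, given oligosaccharide-chain-added GLP-1 peptide or unmodified GLP-1 intraperitoneally in PBS (9 nmol/10 ml, 10 ml/kg). Orbital blood sampled before dosing and at 30, 60, 120, 180 and 300 min; blood glucose read with a glucometer.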

Row | Molecule | stability in plasma (HPLC analysis of remaining peptide) [1] | effect of lowering blood-sugar levels (glucose concentration in plasma) [2] | effect of suppressing rise in blood-sugar levels in OGTT [3] | effect of lowering blood-sugar levels in db/db mice [4]
1 | 19Asn GLP-1-asialo (HAEGTFTSDVSSN(asialo oligosaccharide)LEGQAAKEFIAWLVKGRG; reading uncertain) [Example 7, GLP-1 wherein position 19 is substituted by asialo oligosaccharide chain added Asn] | mostly remained even after 24 hours | – | – | –
2 | CC[C@H](C)[C@H](NC(=O)[C@H](Cc1ccccc1)NC(=O)[C@H](CCC(=O)O)NC(=O)[C@H](CCCCN)NC(=O)[C@H](C)NC(=O)[C@H](C)NC(=O)[C@H](CCC(N)=O)NC(=O)CNC(=O)[C@H](CCC(=O)O)NC(=O)[C@H](CC(C)C)NC(=O)[C@H](Cc1ccc(O)cc1)NC(=O)[C@H](CO)NC(=O)[C@H](CO)NC(=O)[C@@H](NC(=O)[C@H](CC(=O)O)NC(=O)[C@H](CO)NC(=O)[C@@H](NC(=O)[C@H](Cc1ccccc1)NC(=O)[C@@H](NC(=O)CNC(=O)[C@H](CCC(=O)O)NC(=O)[C@H](C)NC(=O)[C@@H](N)Cc1c[nH]cn1)[C@@H](C)O)[C@@H](C)O)C(C)C)C(=O)N[C@@H](C)C(=O)N[C@@H](Cc1c[nH]c2ccccc12)C(=O)N[C@@H](CC(C)C)C(=O)N[C@H](C(=O)N[C@@H](CCCCN)C(=O)NCC(=O)N[C@@H](CCCNC(=N)N)C(=O)NCC(=O)O)C(C)C [Comparative Example 1, GLP-1] | mostly degraded by 180 minutes after the plasma addition | hardly lowered blood-sugar levels | small effect of suppressing rise in blood-sugar levels | almost equal to those in PBS-administered mice
